Consider four compounds from PMC8942558 (Emerging Microbes & Infections, 2022).

The test system of experiment [1] is YFV-17D^DiD. It is filed as cell-based, Yellow fever virus.
The subject of experiment [2] is YFV-17D. It is filed as cell-based, Yellow fever virus.
Experiment [3] has as its system hepatitis C virus (HCV). It is filed as cell-based.
Experiment [4] deals with dengue virus (DENV). It is filed as cell-based.
Experiment [5] deals with Zika virus (ZIKV). It is filed as cell-based.
The subject of experiment [6] is Japanese encephalitis virus (JEV). It is filed as cell-based.
Experiment [7] concerns West Nile virus (WNV). It is filed as cell-based.
Experiment [8] deals with YFV-17D. The class given is cell-based, Yellow fever virus. The source holds these as a separate data set.
Experiment [9] concerns YFV-17D. The class given is cell-based, Yellow fever virus. The source holds these as a separate data set.
The subject of experiment [10] is WNV. It is filed as cell-based, West Nile virus.
The subject of experiment [11] is YFV-17D. The class given is cell-based, Yellow fever virus. The source holds these as a separate data set.
The test system of experiment [12] is clathrin-mediated endocytosis. It is filed as cell-based, Human.
Experiment [13] deals with YFV replicon. It is filed as cell-based, Yellow fever virus.
The subject of experiment [14] is YFV. The class given is cell-based, Yellow fever virus.
In experiment [15] the target is YFV NS5 (Yellow fever virus, UniProt P03314). Briefly: biochemical. It is filed as binding.
Chain of YFV NS5 (P03314 2507-3411 limits assumed): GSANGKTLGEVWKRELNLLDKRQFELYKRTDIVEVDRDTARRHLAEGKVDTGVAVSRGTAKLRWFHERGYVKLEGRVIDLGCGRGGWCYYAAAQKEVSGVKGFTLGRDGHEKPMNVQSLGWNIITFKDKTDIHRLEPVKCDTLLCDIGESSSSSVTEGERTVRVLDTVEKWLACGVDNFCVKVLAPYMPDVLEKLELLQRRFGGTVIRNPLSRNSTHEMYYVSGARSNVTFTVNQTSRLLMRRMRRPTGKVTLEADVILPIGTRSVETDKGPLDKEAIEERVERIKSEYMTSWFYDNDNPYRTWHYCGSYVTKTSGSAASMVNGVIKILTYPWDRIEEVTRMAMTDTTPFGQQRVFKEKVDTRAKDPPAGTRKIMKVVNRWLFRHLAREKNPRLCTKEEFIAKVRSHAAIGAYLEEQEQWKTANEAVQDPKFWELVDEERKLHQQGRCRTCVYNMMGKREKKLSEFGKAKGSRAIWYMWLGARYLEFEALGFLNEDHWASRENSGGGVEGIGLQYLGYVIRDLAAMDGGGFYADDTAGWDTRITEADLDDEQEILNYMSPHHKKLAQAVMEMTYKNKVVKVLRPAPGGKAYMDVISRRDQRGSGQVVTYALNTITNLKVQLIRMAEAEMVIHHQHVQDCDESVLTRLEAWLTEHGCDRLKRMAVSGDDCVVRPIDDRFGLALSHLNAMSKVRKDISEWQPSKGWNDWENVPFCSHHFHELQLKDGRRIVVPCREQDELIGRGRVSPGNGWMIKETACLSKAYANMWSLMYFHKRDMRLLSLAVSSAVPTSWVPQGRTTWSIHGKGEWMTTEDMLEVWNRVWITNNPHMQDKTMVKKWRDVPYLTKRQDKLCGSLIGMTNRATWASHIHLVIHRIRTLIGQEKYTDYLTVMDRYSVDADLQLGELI
The target of experiment [16] is WNV NS5 (West Nile virus, UniProt Q9Q6P4). The experiment can be described thus: biochemical. The class given is binding.
Chain of WNV NS5 (Q9Q6P4 2529-3433 limits assumed): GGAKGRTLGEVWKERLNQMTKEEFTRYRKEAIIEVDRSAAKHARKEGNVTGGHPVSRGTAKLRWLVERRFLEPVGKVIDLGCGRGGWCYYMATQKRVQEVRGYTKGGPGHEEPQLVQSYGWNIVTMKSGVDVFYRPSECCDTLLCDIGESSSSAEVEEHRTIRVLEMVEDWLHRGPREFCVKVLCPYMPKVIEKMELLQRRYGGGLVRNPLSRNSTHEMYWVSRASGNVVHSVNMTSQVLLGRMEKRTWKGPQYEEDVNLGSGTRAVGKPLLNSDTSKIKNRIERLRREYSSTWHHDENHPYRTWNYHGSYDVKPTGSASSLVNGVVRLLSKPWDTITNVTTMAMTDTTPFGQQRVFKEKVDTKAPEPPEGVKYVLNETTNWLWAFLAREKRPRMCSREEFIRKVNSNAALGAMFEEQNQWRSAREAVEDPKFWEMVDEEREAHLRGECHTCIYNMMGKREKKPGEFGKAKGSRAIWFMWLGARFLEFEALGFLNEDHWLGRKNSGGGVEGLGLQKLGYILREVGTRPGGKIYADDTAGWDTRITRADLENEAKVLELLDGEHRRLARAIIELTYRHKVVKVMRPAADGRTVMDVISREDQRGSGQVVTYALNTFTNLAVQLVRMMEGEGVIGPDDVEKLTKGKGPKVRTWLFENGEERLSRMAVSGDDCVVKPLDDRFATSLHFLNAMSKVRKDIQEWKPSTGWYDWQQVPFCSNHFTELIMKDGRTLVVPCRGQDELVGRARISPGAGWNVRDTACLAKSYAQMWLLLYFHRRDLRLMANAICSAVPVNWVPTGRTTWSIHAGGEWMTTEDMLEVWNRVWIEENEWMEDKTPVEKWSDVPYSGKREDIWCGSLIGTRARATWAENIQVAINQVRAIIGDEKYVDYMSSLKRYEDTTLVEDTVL
For experiment [17], the system named is WT-YFV strain FJYF03/2016. More on the design: species or system A129^−/− mice. As to conditions: mouse, in vivo.
The subject of experiment [18] is WT-YFV strain FJYF03/2016. More on the design: species or system C57 mice. As to conditions: mouse, in vivo.

Structures are written as SMILES. pKd: −log10 of the molar value. Where two headings read alike, the source gives them in different places.

Regarding `Cl.N` [NH4Cl], in experiment [1], the “virion-host cell fusion (DiD fluorescence signal)” value (from here on “virion-host cell fusion”) is listed as “fluorescence signal reduced significantly”.
Take `CO[C@H]1/C=C/O[C@@]2(C)Oc3c(C)c(O)c4c(O)c(c(/C=N/N5CCN(C6CCCC6)CC5)c(O)c4c3C2=O)NC(=O)/C(C)=C\C=C\[C@H](C)[C@H](O)[C@@H](C)[C@@H](O)[C@@H](C)[C@H](OC(C)=O)[C@@H]1C` [Rifapentine]: in experiment [2], the “intracellular YFV RNA level” value is reported as “suppressed in a dose-dependent manner”. For the same compound, the “inhibitory effect on HCV infection” value in [3] is reported as “no obvious inhibitory effect”. For the same compound, in [4], the “inhibitory effect on DENV infection” value is “no obvious inhibitory effect”. Besides, in experiment [5], the “inhibitory effect on ZIKV infection” value is reported as “no obvious inhibitory effect”. In addition, the “inhibitory effect on JEV infection” value in [6] is “no obvious inhibitory effect”. Moreover, in [7], the “inhibitory effect on WNV infection” value was “slight suppressive activity above 5 μM”. Besides, the “effect on YFV infection in kinetic test” value in experiment [8] is “obstructive effect on YFV infection throughout the entire phase of viral entry and post-entry stages”. Further, in experiment [9], the “YFV attachment to the cell surface” value was “impeded YFV attachment to the cell surface in a dose-dependent manner”. Also, the WNV binding result in experiment [10] is “did not affect WNV binding”. Moreover, in experiment [11], the “infectivity of virions incubated with compound” value is reported as “no obvious differences in infectivity”. In [12], the TF uptake result is listed as “No major changes”. The “virion-host cell fusion” value in [1] is listed as “no inhibitory effect”. Further, in [13], the “YFV replication in replicon cells” value is given as “robustly abolished YFV replication from 1 to 25 μM”. Further, in [14], the “YFV assembly and release” value is “did not influence YFV assembly and release”. The compound further showed a pKd in [15] of 4.68. In [16], this compound showed a pKd of 4.26. Moreover, in [17], the “body weight of survival mice” value was “recovered to almost the normal level”, the clinical signs result is given as “slowed down or reduced the occurrence of clinical signs”, the survival rate entry was “significantly enhanced the survival rate” and the “virus titres in kidney” value was “did not recognize distinctive changes”. Moreover, in experiment [17], the “virus titres in liver” value is recorded as “did not recognize distinctive changes”, the “virus titres in serum” value was “reduced virus titres significantly” and the “virus titres in spleen” value is on record as “reduced virus titres significantly”. Also, in experiment [18], the “body weight of surviving mice” value is “all recovered to normal levels”, the clinical symptoms entry was “fewer injury features”, the survival of mice result is on record as “significantly improved the survival of mice” and the survival rate result was “approximately 40%”.
For `CC(C)OC(=O)[C@H](C)N[P@](=O)(OC[C@H]1O[C@@H](n2ccc(=O)[nH]c2=O)[C@](C)(F)[C@@H]1O)Oc1ccccc1` [Sofosbuvir], in experiment [13], the “YFV replication in replicon cells” value is “relatively good inhibitory effect”. Besides, the pKd in experiment [15] is 2.21. Also, the survival rate result in experiment [17] is reported as “slight protective activity in the highest infection-dose group”.
Regarding `CO/C1=C\C(C)=C\[C@@H](C)[C@@H](O)[C@@H](C)C/C(C)=C/C=C/[C@H](OC)[C@@H]([C@@H](C)[C@@H](O)[C@H](C)[C@@]2(O)C[C@@H](O)[C@H](C)[C@@H](C(C)C)O2)OC1=O` [bafilomycin A1], the “virion-host cell fusion” value in experiment [1] was “fluorescence signal reduced significantly”.

The pKd is the Kd on a negative log10 scale, so that one unit is a factor of ten. Read a high pKd as a small Kd.
